# In ChEMBL document CHEMBL1201862, “PubChem BioAssay data set” (2004):
# Activity calls are given as the source filed them. For most assays here, no stated cut-off is given here; in the data, actives have a measured EC50 and inactives only a lower limit.
# How the values were obtained:
# [1] = target: T1, Protein skinhead-1 (Caenorhabditis elegans, UniProt P34707); assay type: functional
# T1 sequence (P34707 whole entry): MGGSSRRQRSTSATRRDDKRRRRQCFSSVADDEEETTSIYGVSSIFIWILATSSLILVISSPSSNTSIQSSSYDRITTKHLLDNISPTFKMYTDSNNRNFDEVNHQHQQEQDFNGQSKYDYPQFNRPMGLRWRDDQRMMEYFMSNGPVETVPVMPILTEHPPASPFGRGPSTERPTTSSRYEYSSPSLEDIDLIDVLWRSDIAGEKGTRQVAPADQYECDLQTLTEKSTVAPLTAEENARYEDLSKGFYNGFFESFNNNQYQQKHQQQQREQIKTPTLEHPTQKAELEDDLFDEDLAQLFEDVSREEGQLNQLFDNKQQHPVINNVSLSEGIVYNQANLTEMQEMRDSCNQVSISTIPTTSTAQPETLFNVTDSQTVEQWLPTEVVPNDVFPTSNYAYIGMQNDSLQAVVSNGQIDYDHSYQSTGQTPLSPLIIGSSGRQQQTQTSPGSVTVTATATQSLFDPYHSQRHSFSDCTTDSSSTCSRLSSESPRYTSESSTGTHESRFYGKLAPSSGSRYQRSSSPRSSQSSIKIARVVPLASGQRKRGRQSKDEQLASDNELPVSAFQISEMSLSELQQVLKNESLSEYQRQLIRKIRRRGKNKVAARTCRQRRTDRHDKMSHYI
# [2] = target: T2, Heat shock factor protein 1 (Mus musculus, UniProt P38532); assay: decrease of HSF1-responsive luciferase luminescence – cell-based, NIH3T3, dose retest, confirmation (AID 2382); assay type: functional;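 further: NIH3T3 fibroblasts with HSF1-driven luciferase reporter stressed by proteasome inhibitor MG132; luminescence from HSF1-driven luciferase expression after 8 hours of MG132 stress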
# T2 sequence (P38532 whole entry): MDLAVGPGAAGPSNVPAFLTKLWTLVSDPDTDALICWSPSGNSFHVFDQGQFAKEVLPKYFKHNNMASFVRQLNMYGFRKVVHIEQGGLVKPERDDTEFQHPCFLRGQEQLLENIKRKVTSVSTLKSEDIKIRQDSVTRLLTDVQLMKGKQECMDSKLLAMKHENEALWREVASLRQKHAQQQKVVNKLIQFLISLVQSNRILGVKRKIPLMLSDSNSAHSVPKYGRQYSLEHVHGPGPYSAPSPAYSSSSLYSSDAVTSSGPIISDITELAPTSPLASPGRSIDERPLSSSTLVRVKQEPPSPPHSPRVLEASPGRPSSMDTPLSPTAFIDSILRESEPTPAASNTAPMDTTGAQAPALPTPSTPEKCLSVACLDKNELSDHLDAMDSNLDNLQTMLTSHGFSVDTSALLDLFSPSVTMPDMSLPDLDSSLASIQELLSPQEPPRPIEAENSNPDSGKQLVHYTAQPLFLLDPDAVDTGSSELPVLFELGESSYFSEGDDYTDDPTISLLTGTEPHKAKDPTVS
# [3] = target: T3, Calpain-2 catalytic subunit (Sus scrofa, UniProt P43367); assay: m-calpain protease blockers, concentration series – biochemical, fluorogenic peptide substrate, dose response (AID 1420); assay type: functional
# T3 sequence (P43367 whole entry): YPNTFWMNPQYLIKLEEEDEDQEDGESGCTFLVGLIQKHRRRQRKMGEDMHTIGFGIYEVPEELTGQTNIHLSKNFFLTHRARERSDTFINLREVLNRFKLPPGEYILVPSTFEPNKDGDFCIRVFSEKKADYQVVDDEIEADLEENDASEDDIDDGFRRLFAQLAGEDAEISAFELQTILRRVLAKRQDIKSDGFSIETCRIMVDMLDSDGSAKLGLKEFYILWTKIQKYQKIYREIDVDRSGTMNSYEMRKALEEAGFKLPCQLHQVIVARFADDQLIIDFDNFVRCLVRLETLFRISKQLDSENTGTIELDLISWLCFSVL
# [4] = NIH3T3 cell viability loss – ATP luminescence, mouse fibroblasts, counter-screen, dose response (AID 2010); assay type: functional, cell-based;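 further: cells exposed to compound for about 90 hours before reading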
# [5] = Trypanosoma cruzi growth suppression in host cells – NIH3T3 host cells, beta-gal luminescence, confirmation (AID 2044); assay type: functional, cell-based;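 further: intracellular parasites grown in NIH/3T3 mouse fibroblasts as host cells; luminescent beta-galactosidase reporter signal from transgenic T. cruzi replicating inside host cells; inhibitors lower the luminescence signal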
# [6] = test system: Streptococcus; assay: GAS UMAA2166 growth inhibition – luminescence, BacTiterGlo, counter-screen for streptokinase expression inhibitor project, dose response (AID 1915); assay type: functional, organism-based;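 further: potency for reduction of bacterial viability or growth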
# [7] = test system: Streptococcus sp. 'group A'; assay: Streptococcus pyogenes SK(-)GAS viability under kanamycin – luminescence, BacTiterGlo, confirmation, counter-screen for streptokinase expression inhibitor project, dose response (AID 1900); assay type: functional, organism-based
# [8] = target: T4, Streptokinase A (Streptococcus pyogenes serotype M1, UniProt P10520); assay: viability-normalized secreted streptokinase activity reduction – plasminogen activation absorbance, OD405, dose response (AID 1914); assay type: functional, Streptococcus pyogenes M1 GAS;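 further: secreted streptokinase activity via plasminogen activation per viability signal from cell pellet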
# T4 sequence (P10520 whole entry): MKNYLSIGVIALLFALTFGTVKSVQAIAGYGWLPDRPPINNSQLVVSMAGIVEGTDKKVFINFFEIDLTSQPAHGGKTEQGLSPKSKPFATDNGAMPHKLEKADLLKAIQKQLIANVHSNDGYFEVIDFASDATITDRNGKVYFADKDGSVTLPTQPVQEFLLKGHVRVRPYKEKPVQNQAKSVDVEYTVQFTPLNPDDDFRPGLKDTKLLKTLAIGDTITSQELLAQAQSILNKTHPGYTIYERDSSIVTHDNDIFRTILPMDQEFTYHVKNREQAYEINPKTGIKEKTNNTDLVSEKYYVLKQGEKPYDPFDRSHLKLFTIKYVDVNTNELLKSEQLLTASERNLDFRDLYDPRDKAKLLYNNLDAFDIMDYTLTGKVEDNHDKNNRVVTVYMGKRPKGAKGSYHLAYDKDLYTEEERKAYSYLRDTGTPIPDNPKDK
# [9] = Luminescence Cell-Based Dose Response HTS to Identify Activators of Luciferase Translation or Activity in H4 […] Cells. [Related pubchem assays: 1829 (Project Summary), 1814 (Primary HTS)]; assay type: functional
# [10] = Luminescence Cell-Based Dose Confirmation HTS to Identify Activators of 5'UTR Stem-Loop Driven Alpha-Synuclein mRNA Translation in H4 Neuroglioblastoma Cells. [Related pubchem assays: 1829 (Project Summary), 1814 (Primary HTS)]; assay type: functional
# [11] = test system: H4; assay: Luminescence Cell-Based Dose Response HTS to Identify Activators of 5'UTR Stem-Loop Driven Prion Protein mRNA Translation in H4 Neuroglioblastoma Cells. [Related pubchem assays: 1829 (Project Summary), 1814 (Primary HTS)]; assay type: functional; details: Homo sapiens
# [12] = viability of uninfected HEp-2 cells – cell-based, HTS, cytotoxicity control for RSV inhibitor project, dose response (AID 2410); assay type: functional; details: human respiratory syncytial virus
# [13] = Luminescence Cell-Based Dose Retest to Confirm Inhibitors of Cancer Stem Cells. [Related pubchem assays (depositor defined):AID2717, AID2721]; assay type: functional; details: Homo sapiens
# [14] = target: Paired box protein Pax-8 (Homo sapiens, UniProt Q06710); assay: PAX8 transcriptional activity inhibition in RMG-I – RMG-I cells, luciferase, cherry-pick, dose response (AID 687027); assay type: functional, cell-based;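 further: luciferase reporter driven by Pax8 target thyroperoxidase promoter measured by SteadyGlo luminescence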
# Paired box protein Pax-8, sequence (Q06710 whole entry, the tested form may be a part): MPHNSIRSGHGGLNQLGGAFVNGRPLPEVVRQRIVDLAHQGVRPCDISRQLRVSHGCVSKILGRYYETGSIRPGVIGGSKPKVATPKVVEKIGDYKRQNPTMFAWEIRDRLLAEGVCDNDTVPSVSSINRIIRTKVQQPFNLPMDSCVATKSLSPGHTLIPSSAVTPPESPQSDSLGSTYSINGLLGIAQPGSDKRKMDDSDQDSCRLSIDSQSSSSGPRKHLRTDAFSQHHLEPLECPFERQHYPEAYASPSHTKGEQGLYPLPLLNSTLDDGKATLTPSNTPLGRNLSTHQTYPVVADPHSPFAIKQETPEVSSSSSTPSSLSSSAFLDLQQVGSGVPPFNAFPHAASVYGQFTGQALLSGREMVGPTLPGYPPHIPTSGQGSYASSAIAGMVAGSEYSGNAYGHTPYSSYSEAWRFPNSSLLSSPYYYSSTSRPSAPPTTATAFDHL
# [15] = HIV-1 AD8 envelope cell-cell fusion blockers – cherry-pick, dose response (AID 652062); assay type: functional, cell-based;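 further: luciferase signal from cell-cell fusion driven by HIV-1 clade B AD8 Env; potency is for inhibitors of fusion seen as a drop in luminescence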
# [16] = P. falciparum Dd2 growth inhibitors, dose response, SYBR Green, cherry-picked samples (AID 1159567); assay type: functional, cell-based
smiles,measurement,setting,value
Cc1cccc(C#Cc2ccccc2)n1,IC50,[1],> 100 µM (inactive)
COc1cccc(/C=C/C(=O)NCc2ccc3c(c2)OCO3)c1,EC50,[2],> 195 µM (not active)
CCN(CC)C(=O)c1ccc(-c2ccccc2)cc1,EC50,[2],> 195 µM (not active)
O=C(NCCC1=CCCCC1)c1ccc2c(c1)N(Cc1ccccc1)C(=O)CS2,IC50,[3],5.5 µM (not active)
same,EC50,[4],> 30 µM (not active)
same,EC50,[5],2.88 µM (active)
CCc1ccccc1NC(=O)c1ccc(NS(C)(=O)=O)cc1,EC50,[2],> 195 µM (not active)
COc1cc(C(=O)OCC(=O)c2c(N)n(C)c(=O)n(C)c2=O)ccc1OCCC(C)C,EC50,[6],> 150 µM (not active)
same,EC50,[7],12.7 µM (active)
same,EC50,[8],> 150 µM (not active)
CN1C(=O)/C(=C\c2ccccc2F)Sc2ccc(C(=O)NC3CCN(Cc4ccccc4)CC3)cc21,EC50,[4],> 60 µM (not active)
same,EC50,[5],0.243 µM (active)
same,EC50,[6],41.8 µM (active)
same,EC50,[7],7.12 µM (active)
same,EC50,[8],> 150 µM (not active)
Cc1ccccc1N=C(S)N(CCc1c(C)[nH]c2ccc(F)cc12)Cc1cccnc1,IC50,[3],> 50 µM (not active)
CC(C)(C)C1CC=C2C(C#N)=C(N)C(C#N)(C#N)C(c3cccs3)C2C1 (centres undefined),EC50,[6],> 150 µM (not active)
same,EC50,[7],14.9 µM (active)
same,EC50,[8],25.7 µM (active)
CCOC(=O)N1CCN(c2ncnc3c2cnn3-c2ccc(OC)cc2)CC1,IC50,[1],> 100 µM (inactive)
CS(=O)(=O)N(CC(=O)O)c1ccc(C23CC4CC(CC(C4)C2)C3)cc1,EC50,[2],> 195 µM (not active)
Clc1ccc(C#Cc2cccnc2)cc1,EC50,[9],24.1 µM (active)
same,IC50,[1],12.6 µM (active)
same,EC50,[10],17.4 µM (active)
same,EC50,[11],1.73 µM (active)
N#CCc1ccc(NC(=O)Nc2cccc3ccccc23)cc1,EC50,[2],> 195 µM (not active)
CC(C)c1ccc(-n2cccc2/C=C2/C(=N)N3C=CSC3=NC2=O)cc1,EC50,[6],14.7 µM (active)
same,EC50,[7],2.1 µM (active)
same,EC50,[8],> 150 µM (not active)
O=C1CC(C(=O)Nc2ccc(Cl)cc2)n2ncnc2N1 (centres undefined),IC50,[3],< 0.4 µM (not active)
Cc1cc2ccccc2n1CCNC(=O)COc1ccc2ccccc2c1,CC50,[12],21.4 µM (active)
CC(CCc1ccccc1)NC(=O)CSc1cccc[n+]1[O-] (centres undefined),IC50,[3],44.7 µM (not active)
Fc1ccc(CSc2nc3ccccc3[nH]2)c2ccccc12,IC50,[3],2.61 µM (not active)
same,AC50,[13],5.37 µM (active)
same,EC50,[6],13.9 µM (active)
same,EC50,[7],8.67 µM (active)
same,EC50,[8],14.1 µM (active)
CSc1ccc(CN(C)CC(=O)Nc2c(F)cccc2F)cc1,IC50,[3],2.25 µM (not active)
CCn1c(S(=O)(=O)O)nc2ccccc21,EC50,[2],> 195 µM (not active)
Cc1c(C(=O)N(C)c2ccc(Cl)cc2)cnn1-c1ccccc1,IC50,[1],> 100 µM (inactive)
C=CCn1c(N2C(=O)CC(Cc3ccccc3)C2=O)nc2ccccc21 (centres undefined),EC50,[6],> 150 µM (not active)
same,EC50,[7],9.02 µM (active)
same,EC50,[8],> 150 µM (not active)
CCOC(=O)N1CCc2c(sc3c2c(=O)n(Cc2ccccc2)c(=O)n3CC(=O)NCCOC)C1,IC50,[3],7.05 µM (not active)
N#C/C(=C\c1ccco1)Sc1nc2ccccc2s1,EC50,[9],11.8 µM (active)
same,IC50,[1],> 100 µM (inactive)
same,EC50,[10],13.9 µM (active)
same,EC50,[11],25.6 µM (active)
CC(C)(C)NC1=NN=C(c2ccc(Cl)cc2)CS1,IC50,[1],13.9 µM (active)
Cc1ccnn2c(-c3ccccc3)c3c(=O)n(C)c(=O)n(C)c3c12,EC50,[6],> 150 µM (not active)
same,EC50,[7],> 150 µM (not active)
same,EC50,[8],> 150 µM (not active)
CC(=O)c1cn(CC(=O)Nc2ccccc2C)c2ccccc12,EC50,[2],> 195 µM (not active)
CCCCSc1nnc(-c2ccc(C)cc2)c2ccccc12,IC50,[3],5.25 µM (not active)
Cc1ccc(NC(=O)c2ccc(F)cc2F)cc1,IC50,[1],79 µM (inactive)
Cc1ccc(N(CC(=O)NCC2CCCO2)S(=O)(=O)c2ccc(Cl)cc2)cc1C (centres undefined),IC50,[1],> 100 µM (inactive)
Oc1ccc(C[C@H]2CN([C@@H](Cc3ccc(O)cc3)CN3CCC[C@@H]3CN3C(=S)NC[C@@H]3Cc3ccccc3)C(=S)N2CC2CCCCCC2)cc1,AC50,[14],9.27 µM (active)
Cc1ccc(NC(=O)CSc2nc(N)cc(O)n2)cc1S(=O)(=O)N1CCCCCC1,IC50,[1],> 100 µM (inactive)
C[C@H]1CN([C@@H](C)CO)C(=O)c2cccc(NC(=O)Nc3ccc(F)cc3)c2O[C@H]1CN(C)C(=O)Nc1ccc(C(F)(F)F)cc1,AC50,[14],13.1 µM (active)
O=C(C[C@H]1C[C@@H]2c3cc(NC(=O)C4CCOCC4)ccc3O[C@@H]2[C@H](CO)O1)NCc1ccccc1,AC50,[15],2.09 µM (active)
C[C@@H]1CN([C@@H](C)CO)C(=O)c2c(c3ccccc3n2C)-c2ccccc2CO[C@H]1CN(C)C(=O)Nc1ccc2c(c1)OCO2,AC50,[14],5.68 µM (active)
OC[C@@H]1CC[C@@H]2O[C@H](CCc3ccc(-c4ccc(F)cc4)cc3)[C@H](n3cc(C4CC4)nn3)C[C@@H]2O1,AC50,[16],7.67 µM (active)
N#C[C@@H]1[C@H](c2ccccc2-c2cccc(F)c2)[C@H](CO)N1C(=O)C1CC1,AC50,[16],3.48 µM (active)
COCC#Cc1ccc(CC[C@H]2O[C@H]3CC[C@@H](CO)O[C@H]3C[C@@H]2n2cc(C3CC3)nn2)cc1,AC50,[16],5.82 µM (active)
CCC(=O)N1CCC2(CC1)CN(Cc1ccc3c(c1)OCO3)[C@@H](CO)c1c2c2ccc(OC)cc2n1C,AC50,[16],4.05 µM (active)
CN1c2ccc(C#Cc3cccnc3)cc2[C@@H]2[C@@H](CCN2C(=O)C2CCC2)[C@@H]1CO,AC50,[16],4.18 µM (active)
COc1cc(C(=O)NS(=O)(=O)c2ccccc2C)ccc1Cc1cn(C)c2ccc(NC(=O)OC3CCCC3)cc12 [ZAFIRLUKAST],EC50,[6],> 50 µM (not active)
same,EC50,[7],0.936 µM (active)
same,EC50,[8],> 50 µM (not active)
